Measured values: patent publication US20250144067A1, “PERSONALIZED STARVATION THERAPY FOR CANCER” (Faeth Therapeutics, Inc., priority 2021, published 2025)
Where a name gives a salt, the structure may show the parent alone.

System: NCI-H292 lung cancer cells
Assay: FDA drug screening, complete media vs cholesterol-free media with simvastatin (TABLE 2)
Assay type: cell-based, human
Details: NCI-H292 cells, FDA library drug in cholesterol-free media with simvastatin 0.04 μM

Structure (SMILES) | Cholesterol-free media + simvastatin (0.04 μM)
CC(C)c1nc(CN(C)C(=O)N[C@H](C(=O)N[C@@H](Cc2ccccc2)C[C@H](O)[C@H](Cc2ccccc2)NC(=O)OCc2cncs2)C(C)C)cs1 [Ritonavir] | 1.133
O=C(Nc1c(Cl)cncc1Cl)c1ccc(OC(F)F)c(OCC2CC2)c1 [Roflumilast] | 1.607

Same assay, conditions: NCI-H292 cells, FDA library drug in complete media

Structure (SMILES) | Complete Media
CC(C)c1nc(CN(C)C(=O)N[C@H](C(=O)N[C@@H](Cc2ccccc2)C[C@H](O)[C@H](Cc2ccccc2)NC(=O)OCc2cncs2)C(C)C)cs1 [Ritonavir] | 0.8233
O=C(Nc1c(Cl)cncc1Cl)c1ccc(OC(F)F)c(OCC2CC2)c1 [Roflumilast] | 0.8972

Same assay, conditions: NCI-H292 cells, cholesterol-free media with simvastatin 0.04 μM; […]

Structure (SMILES) | Cholesterol-free media + simvastatin (0.04 μM)
CCN(C)C(=O)Oc1cccc([C@H](C)N(C)C)c1 [Rivastigmine] | 1.229

Same assay, conditions: NCI-H292 cells, cholesterol-free media with simvastatin 0.04 μM; cell growth value in FDA drug screen

Structure (SMILES) | Cholesterol-free media + simvastatin (0.04 μM)
Cc1c(C(=O)NN2CCCCC2)nn(-c2ccc(Cl)cc2Cl)c1-c1ccc(Cl)cc1 [Rimonabant (Hydrochloride)] | 0.8204
COC(=O)N(C)c1c(N)nc(-c2nn(Cc3ccccc3F)c3ncccc23)nc1N [Riociguat] | 1.101
O=P(O)(O)C(O)(Cc1cccnc1)P(=O)(O)O [Risedronate (sodium)] | 0.8847
CCCN1CCCC[C@H]1C(=O)Nc1c(C)cccc1C [Ropivacaine (hydrochloride monohydrate)] | 1.378
CN(CCOc1ccc(CC2SC(=O)NC2=O)cc1)c1ccccn1.O=C(O)/C=C\C(=O)O (stereo not drawn) [Rosiglitazone (maleate)] | 0.848

Same assay, conditions: NCI-H292 cells, complete media; […]

Structure (SMILES) | Complete Media
CCN(C)C(=O)Oc1cccc([C@H](C)N(C)C)c1 [Rivastigmine] | 1.345

Same assay, conditions: NCI-H292 cells, complete media; cell growth value in FDA drug screen

Structure (SMILES) | Complete Media
Cc1c(C(=O)NN2CCCCC2)nn(-c2ccc(Cl)cc2Cl)c1-c1ccc(Cl)cc1 [Rimonabant (Hydrochloride)] | 0.8385
COC(=O)N(C)c1c(N)nc(-c2nn(Cc3ccccc3F)c3ncccc23)nc1N [Riociguat] | 1.185
O=P(O)(O)C(O)(Cc1cccnc1)P(=O)(O)O [Risedronate (sodium)] | 0.9961
CCCN1CCCC[C@H]1C(=O)Nc1c(C)cccc1C [Ropivacaine (hydrochloride monohydrate)] | 1.433
CN(CCOc1ccc(CC2SC(=O)NC2=O)cc1)c1ccccn1.O=C(O)/C=C\C(=O)O (stereo not drawn) [Rosiglitazone (maleate)] | 0.8943

Same assay, conditions: NCI-H292 cells, drug in cholesterol-free media with simvastatin 0.04 μM

Structure (SMILES) | Cholesterol-free media + simvastatin (0.04 μM)
N[C@@H]1c2cccnc2[C@H](OC(=O)N2CCC(n3c(=O)[nH]c4ncccc43)CC2)CC[C@H]1c1cccc(F)c1F [Rimegepant] | 1.311
C[C@H]1CNCCCN1S(=O)(=O)c1cccc2cncc(F)c12 [Ripasudil] | 1.388
CCCN1CCCC[C@H]1C(=O)Nc1c(C)cccc1C [Ropivacaine (hydrochloride)] | 1.189
CCCN1CCCC[C@H]1C(=O)Nc1c(C)cccc1C [Ropivacaine] | 0.9386

Same assay, conditions: NCI-H292 cells, drug in complete media

Structure (SMILES) | Complete Media
N[C@@H]1c2cccnc2[C@H](OC(=O)N2CCC(n3c(=O)[nH]c4ncccc43)CC2)CC[C@H]1c1cccc(F)c1F [Rimegepant] | 1.114
C[C@H]1CNCCCN1S(=O)(=O)c1cccc2cncc(F)c12 [Ripasudil] | 1.177
CCCN1CCCC[C@H]1C(=O)Nc1c(C)cccc1C [Ropivacaine (hydrochloride)] | 0.9899
CCCN1CCCC[C@H]1C(=O)Nc1c(C)cccc1C [Ropivacaine] | 0.7628

Same assay, conditions: complete media minus cholesterol-free media + simvastatin; >0 enhanced anti-cancer activity, about 0 neutral, <0 antagonist

Structure (SMILES) | Difference
Cc1c(C(=O)NN2CCCCC2)nn(-c2ccc(Cl)cc2Cl)c1-c1ccc(Cl)cc1 [Rimonabant (Hydrochloride)] | 0.02
COC(=O)N(C)c1c(N)nc(-c2nn(Cc3ccccc3F)c3ncccc23)nc1N [Riociguat] | 0.08
O=P(O)(O)C(O)(Cc1cccnc1)P(=O)(O)O [Risedronate (sodium)] | 0.11
CCCN1CCCC[C@H]1C(=O)Nc1c(C)cccc1C [Ropivacaine (hydrochloride monohydrate)] | 0.05
CN(CCOc1ccc(CC2SC(=O)NC2=O)cc1)c1ccccn1.O=C(O)/C=C\C(=O)O (stereo not drawn) [Rosiglitazone (maleate)] | 0.05

Same assay, conditions: complete media minus cholesterol-free media + simvastatin; […]

Structure (SMILES) | Difference
CCN(C)C(=O)Oc1cccc([C@H](C)N(C)C)c1 [Rivastigmine] | 0.12

Same assay, conditions: complete media vs cholesterol-free media + simvastatin (0.04 μM); >0 enhanced anti-cancer activity, about 0 neutral, <0 antagonist

Structure (SMILES) | Difference
N[C@@H]1c2cccnc2[C@H](OC(=O)N2CCC(n3c(=O)[nH]c4ncccc43)CC2)CC[C@H]1c1cccc(F)c1F [Rimegepant] | −0.20
C[C@H]1CNCCCN1S(=O)(=O)c1cccc2cncc(F)c12 [Ripasudil] | −0.21
CC(C)c1nc(CN(C)C(=O)N[C@H](C(=O)N[C@@H](Cc2ccccc2)C[C@H](O)[C@H](Cc2ccccc2)NC(=O)OCc2cncs2)C(C)C)cs1 [Ritonavir] | −0.31
O=C(Nc1c(Cl)cncc1Cl)c1ccc(OC(F)F)c(OCC2CC2)c1 [Roflumilast] | −0.71
CCCN1CCCC[C@H]1C(=O)Nc1c(C)cccc1C [Ropivacaine (hydrochloride)] | −0.20
CCCN1CCCC[C@H]1C(=O)Nc1c(C)cccc1C [Ropivacaine] | −0.18

System: NCI-H292 lung cancer cells
Assay: FDA drug screening, complete media vs cholesterol-free media without statin (TABLE 1)
Assay type: cell-based, human
Details: Complete minus Cholesterol-free; >0 enhanced anti-cancer activity, about 0 neutral, <0 antagonist

Structure (SMILES) | Difference
COC(=O)N(C)c1c(N)nc(-c2nn(Cc3ccccc3F)c3ncccc23)nc1N [Riociguat] | −0.22
O=P(O)(O)C(O)(Cc1cccnc1)P(=O)(O)O [Risedronate (sodium)] | −0.30
CC(C)c1nc(CN(C)C(=O)N[C@H](C(=O)N[C@@H](Cc2ccccc2)C[C@H](O)[C@H](Cc2ccccc2)NC(=O)OCc2cncs2)C(C)C)cs1 [Ritonavir] | −0.25
O=C(Nc1c(Cl)cncc1Cl)c1ccc(OC(F)F)c(OCC2CC2)c1 [Roflumilast] | −0.06
CCCN1CCCC[C@H]1C(=O)Nc1c(C)cccc1C [Ropivacaine (hydrochloride)] | 0.07
CCCN1CCCC[C@H]1C(=O)Nc1c(C)cccc1C [Ropivacaine] | −0.20

Same assay, conditions: Complete minus Cholesterol-free; […]

Structure (SMILES) | Difference
CCN(C)C(=O)Oc1cccc([C@H](C)N(C)C)c1 [Rivastigmine] | −0.61

Same assay, conditions: NCI-H292 cells in cholesterol-free media without statin

Structure (SMILES) | Cholesterol-free
CCN(C)C(=O)Oc1cccc([C@H](C)N(C)C)c1 [Rivastigmine] | 1.742

Same assay, conditions: NCI-H292 cells in complete media

Structure (SMILES) | Complete
CCN(C)C(=O)Oc1cccc([C@H](C)N(C)C)c1 [Rivastigmine] | 1.133

Same assay, conditions: NCI-H292 cells, cholesterol-free media without statin

Structure (SMILES) | Cholesterol-free
N[C@@H]1c2cccnc2[C@H](OC(=O)N2CCC(n3c(=O)[nH]c4ncccc43)CC2)CC[C@H]1c1cccc(F)c1F [Rimegepant] | 1.457
Cc1c(C(=O)NN2CCCCC2)nn(-c2ccc(Cl)cc2Cl)c1-c1ccc(Cl)cc1 [Rimonabant (Hydrochloride)] | 1.291
COC(=O)N(C)c1c(N)nc(-c2nn(Cc3ccccc3F)c3ncccc23)nc1N [Riociguat] | 0.9238
O=P(O)(O)C(O)(Cc1cccnc1)P(=O)(O)O [Risedronate (sodium)] | 1.022
CC(C)c1nc(CN(C)C(=O)N[C@H](C(=O)N[C@@H](Cc2ccccc2)C[C@H](O)[C@H](Cc2ccccc2)NC(=O)OCc2cncs2)C(C)C)cs1 [Ritonavir] | 1.533
CCCN1CCCC[C@H]1C(=O)Nc1c(C)cccc1C [Ropivacaine (hydrochloride monohydrate)] | 0.9717
CCCN1CCCC[C@H]1C(=O)Nc1c(C)cccc1C [Ropivacaine] | 1.098

Same assay, conditions: NCI-H292 cells, cholesterol-free media without statin, FDA drug library screen

Structure (SMILES) | Cholesterol-free
C[C@H]1CNCCCN1S(=O)(=O)c1cccc2cncc(F)c12 [Ripasudil] | 0.6571
O=C(Nc1c(Cl)cncc1Cl)c1ccc(OC(F)F)c(OCC2CC2)c1 [Roflumilast] | 0.9495
CCCN1CCCC[C@H]1C(=O)Nc1c(C)cccc1C [Ropivacaine (hydrochloride)] | 1.2
CN(CCOc1ccc(CC2SC(=O)NC2=O)cc1)c1ccccn1.O=C(O)/C=C\C(=O)O (stereo not drawn) [Rosiglitazone (maleate)] | 1.107

Same assay, conditions: NCI-H292 cells, complete media

Structure (SMILES) | Complete
N[C@@H]1c2cccnc2[C@H](OC(=O)N2CCC(n3c(=O)[nH]c4ncccc43)CC2)CC[C@H]1c1cccc(F)c1F [Rimegepant] | 0.9844
Cc1c(C(=O)NN2CCCCC2)nn(-c2ccc(Cl)cc2Cl)c1-c1ccc(Cl)cc1 [Rimonabant (Hydrochloride)] | 0.882
COC(=O)N(C)c1c(N)nc(-c2nn(Cc3ccccc3F)c3ncccc23)nc1N [Riociguat] | 0.7003
O=P(O)(O)C(O)(Cc1cccnc1)P(=O)(O)O [Risedronate (sodium)] | 0.7264
CC(C)c1nc(CN(C)C(=O)N[C@H](C(=O)N[C@@H](Cc2ccccc2)C[C@H](O)[C@H](Cc2ccccc2)NC(=O)OCc2cncs2)C(C)C)cs1 [Ritonavir] | 1.287
CCCN1CCCC[C@H]1C(=O)Nc1c(C)cccc1C [Ropivacaine (hydrochloride monohydrate)] | 0.6061
CCCN1CCCC[C@H]1C(=O)Nc1c(C)cccc1C [Ropivacaine] | 0.8949

Same assay, conditions: NCI-H292 cells, complete media, FDA drug library screen

Structure (SMILES) | Complete
C[C@H]1CNCCCN1S(=O)(=O)c1cccc2cncc(F)c12 [Ripasudil] | 0.9065
O=C(Nc1c(Cl)cncc1Cl)c1ccc(OC(F)F)c(OCC2CC2)c1 [Roflumilast] | 0.8928
CCCN1CCCC[C@H]1C(=O)Nc1c(C)cccc1C [Ropivacaine (hydrochloride)] | 1.265
CN(CCOc1ccc(CC2SC(=O)NC2=O)cc1)c1ccccn1.O=C(O)/C=C\C(=O)O (stereo not drawn) [Rosiglitazone (maleate)] | 1.422

Same assay, conditions: complete vs cholesterol-free media; >0 enhanced anti-cancer activity, about 0 neutral, <0 antagonist

Structure (SMILES) | Difference
C[C@H]1CNCCCN1S(=O)(=O)c1cccc2cncc(F)c12 [Ripasudil] | 0.25
CN(CCOc1ccc(CC2SC(=O)NC2=O)cc1)c1ccccn1.O=C(O)/C=C\C(=O)O (stereo not drawn) [Rosiglitazone (maleate)] | 0.32

Same assay, conditions: complete vs cholesterol-free media; greater than 0 enhanced anti-cancer activity, about 0 neutral, below 0 antagonists

Structure (SMILES) | Difference
N[C@@H]1c2cccnc2[C@H](OC(=O)N2CCC(n3c(=O)[nH]c4ncccc43)CC2)CC[C@H]1c1cccc(F)c1F [Rimegepant] | −0.47
Cc1c(C(=O)NN2CCCCC2)nn(-c2ccc(Cl)cc2Cl)c1-c1ccc(Cl)cc1 [Rimonabant (Hydrochloride)] | −0.41
CCCN1CCCC[C@H]1C(=O)Nc1c(C)cccc1C [Ropivacaine (hydrochloride monohydrate)] | −0.37
